US20090291877A1, “TREATMENTS USING CITRULLINE” (priority 2006, published 2009)

What was measured:
[1] = hemodialysis patients, pre versus post dialysis run; cited from earlier work
[2] = Plasma nitrotyrosine during 72-h intravenous infusion in ICU patients with severe sepsis/septic shock; type: in vivo, human; conditions: 72-h i.v. infusion, compared with placebo
Procedure: (§1) Methods: According to a placebo-controlled double-blind study design, ICU patients with severe sepsis/septic shock (<48 h; APACHE II scores between 18-41) were randomized in a group treated with intravenous 72-h L-arginine-HCl (1.2 μmol/kg·min, n=9) or isocaloric L-alanine (placebo; n=9). All patients were treated with norepinephrine in a range between […] at the start of study. Haemodynamics were recorded at 2-h intervals throughout the protocol. Blood was sampled at baseline and at 24-h intervals and analysed for plasma nitrotyrosine levels. Repeated measurements ANOVA was used; data are means±SEM.

[3] = Haemodynamics (MAP, systemic blood pressure, norepinephrine dose) during 72-h intravenous infusion in ICU patients with severe sepsis/septic shock; type: in vivo, human; conditions: for MAP: i.v. L-arginine-HCl 1.2 μmol/kg·min, mean ± SEM
Procedure: as §1

In the case of `Cl.N=C(N)NCCC[C@H](N)C(=O)O` [ARG, L-arginine-HCl], the “Decrease of level during dialysis treatment” value [1] is given as 36%, the “Plasma nitrotyrosine (oxidative effect on plasma proteins), arginine versus placebo” value ([2]; listed as Arginine) is given as “does not enhance” and the “Plasma nitrotyrosine (oxidative effect on plasma proteins), arginine versus placebo” value ([2]; listed as arginine) is given as “did not differ”. For the same compound, the “Norepinephrine dose, arginine versus placebo” value ([3]; 72-h i.v. infusion, compared with placebo) was “No significant differences”, the “Systemic blood pressure, arginine versus placebo” value ([3]; 72-h i.v. infusion, compared with placebo, listed as Arginine) was “does not affect” and the “Systemic blood pressure, arginine versus placebo” value ([3]; 72-h i.v. infusion, compared with placebo, listed as arginine) was “No significant differences”. The MAP ([3]; 24 h) was 81 ± 3 mmHg, the MAP ([3]; 48 h) was 85 ± 4 mmHg and the MAP ([3]; 72 h) was 84 ± 5 mmHg. For the same compound, the MAP ([3]; Baseline) was 82 ± 4 mmHg.
